Test results published in patent US9995734B2, “Human T cell line assay for evaluating the immunologic identity of glatiramer acetate preparations” (Mylan Inc., priority 2013, dated 2018).

Tested on: panel of six GA-specific long-term human T-cell lines (222-2D8, 222-2F12, 165-F3C, 165-F6C, 205-1C4, 205-1F4)
Test: GA-specific human T-cell line panel assay (ATP proliferation): GA test lots and altered GA lots compared with Copaxone
Format: cell-based
Conditions: 4 days
Method: Proliferation assays, using the panel of six GA-specific long-term human T-cell lines listed in Table 78, were carried out to compare […] GA test lots, GMA/009/14 (GA Lot 009), GMA/010/14 (GA Lot 010), GMA/011/14 (GA Lot 011), GMA/012/14 (GA Lot 012), GMA/013/14 (GA Lot 013), GMA/014/14 (GA Lot 014), GA Lot 016, GMA/017/14 (GA Lot 017), GMA/018/14 (GA Lot 018), and GMA/070/14 (GA Lot 070), manufactured using standard methods, to a Copaxone reference lot.
Each T-cell line was restimulated using methods described above, using five concentrations of the reference antigen (0.5, 1, 2, 2.5, and 5 μg/ml Copaxone), the same five concentrations of test antigen (the nine GA test lots), and a no antigen control, in the presence of 5×10^4 mitomycin-treated autologous B-LCL. Proliferation was measured by ATP assay after 4 days of incubation with antigen, using methods described previously.
The percentages in the last column of each table were calculated as follows: Proliferation response to test antigen minus proliferation response to control (no antigen)÷proliferation response to reference antigen minus proliferation response to control (no antigen)
The panel of six GA-specific human T-cell lines listed in Table 78 above was used to test the immunological identity of altered GA lots to Copaxone.
Proliferation assays using the panel of six GA-specific T-cell lines (Table 77) were carried out, to compare negative GA lots 051F, 054F, 055F, 057F, 058F, 059F, and 060F (test lots), to Copaxone (reference lot). Each cell line was restimulated using 5 concentrations of reference antigen (Copaxone) and test antigen (the negative GA lots), including a no antigen control (in the presence of 5×10^4 mitomycin-treated autologous B-LCL). Proliferation was measured by ATP assay after 4 days of incubation with antigen, using methods described previously.
The percentages in the last column of each table were calculated as follows: Proliferation response to test antigen minus proliferation response to control (no antigen)÷proliferation response to reference antigen minus proliferation response to control (no antigen).

Substance: glatiramer acetate [COP]
- Proliferation (ATP assay), Mean (Table 95, T-cell line 165-F6C, GA conc. 2.5 μg/mL): 11,665
- Proliferation (ATP assay), Mean (Table 95, T-cell line 165-F6C, GA conc. 5 μg/mL): 30,422
- Proliferation (ATP assay), Mean (Table 95, T-cell line 205-1C4, GA conc. 0.5 μg/mL): 13,267
- Proliferation (ATP assay), Mean (Table 95, T-cell line 205-1C4, GA conc. 1 μg/mL): 26,848
- Proliferation (ATP assay), Mean (Table 95, T-cell line 205-1C4, GA conc. 2 μg/mL): 142,528
- Proliferation (ATP assay), Mean (Table 95, T-cell line 205-1C4, GA conc. 2.5 μg/mL): 159,785
- Proliferation (ATP assay), Mean (Table 95, T-cell line 205-1C4, GA conc. 5 μg/mL): 171,452
- Proliferation (ATP assay), Mean (Table 95, T-cell line 205-1F4, GA conc. 0.5 μg/mL): 6,984
- Proliferation (ATP assay), Mean (Table 95, T-cell line 205-1F4, GA conc. 1 μg/mL): 15,174
- Proliferation (ATP assay), Mean (Table 95, T-cell line 205-1F4, GA conc. 2 μg/mL): 46,598
- Proliferation (ATP assay), Mean (Table 95, T-cell line 205-1F4, GA conc. 2.5 μg/mL): 51,372
- Proliferation (ATP assay), Mean (Table 95, T-cell line 205-1F4, GA conc. 5 μg/mL): 61,252
- Proliferation (ATP assay), Mean (Table 95, T-cell line 222-2D8, GA conc. 0.5 μg/mL): 13,958
- Proliferation (ATP assay), Mean (Table 95, T-cell line 222-2D8, GA conc. 1 μg/mL): 87,807
- Proliferation (ATP assay), Mean (Table 95, T-cell line 222-2D8, GA conc. 2 μg/mL): 142,231
- Proliferation (ATP assay), Mean (Table 95, T-cell line 222-2D8, GA conc. 2.5 μg/mL): 140,804
- Proliferation (ATP assay), Mean (Table 95, T-cell line 222-2D8, GA conc. 5 μg/mL): 147,182
- Proliferation (ATP assay), Mean (Table 95, T-cell line 222-2F12, GA conc. 0.5 μg/mL): 3,580
- Proliferation (ATP assay), Mean (Table 95, T-cell line 222-2F12, GA conc. 1 μg/mL): 42,304
- Proliferation (ATP assay), Mean (Table 95, T-cell line 222-2F12, GA conc. 2 μg/mL): 108,046
- Proliferation (ATP assay), Mean (Table 95, T-cell line 222-2F12, GA conc. 2.5 μg/mL): 115,182
- Proliferation (ATP assay), Mean (Table 95, T-cell line 222-2F12, GA conc. 5 μg/mL): 123,169
- Proliferation (ATP assay), Mean (Table 96, T-cell line 165-F3C, GA conc. 0.5 μg/mL): 2,577
- Proliferation (ATP assay), Mean (Table 96, T-cell line 165-F3C, GA conc. 1 μg/mL): 5,743
- Proliferation (ATP assay), Mean (Table 96, T-cell line 165-F3C, GA conc. 2 μg/mL): 16,415
- Proliferation (ATP assay), Mean (Table 96, T-cell line 165-F3C, GA conc. 2.5 μg/mL): 20,446
- Proliferation (ATP assay), Mean (Table 96, T-cell line 165-F3C, GA conc. 5 μg/mL): 32,600
- Proliferation (ATP assay), Mean (Table 96, T-cell line 165-F6C, GA conc. 0.5 μg/mL): 2,228
- Proliferation (ATP assay), Mean (Table 96, T-cell line 165-F6C, GA conc. 1 μg/mL): 4,270
- Proliferation (ATP assay), Mean (Table 96, T-cell line 165-F6C, GA conc. 2 μg/mL): 15,430
- Proliferation (ATP assay), Mean (Table 96, T-cell line 165-F6C, GA conc. 2.5 μg/mL): 28,942
- Proliferation (ATP assay), Mean (Table 96, T-cell line 165-F6C, GA conc. 5 μg/mL): 45,836
- Proliferation (ATP assay), Mean (Table 96, T-cell line 205-1C4, GA conc. 0.5 μg/mL): 11,790
- Proliferation (ATP assay), Mean (Table 96, T-cell line 205-1C4, GA conc. 1 μg/mL): 26,004
- Proliferation (ATP assay), Mean (Table 96, T-cell line 205-1C4, GA conc. 2 μg/mL): 102,672
- Proliferation (ATP assay), Mean (Table 96, T-cell line 205-1C4, GA conc. 2.5 μg/mL): 124,300
- Proliferation (ATP assay), Mean (Table 96, T-cell line 205-1C4, GA conc. 5 μg/mL): 129,908
- Proliferation (ATP assay), Mean (Table 96, T-cell line 205-1F4, GA conc. 0.5 μg/mL): 8,158
- Proliferation (ATP assay), Mean (Table 96, T-cell line 205-1F4, GA conc. 1 μg/mL): 17,491
- Proliferation (ATP assay), Mean (Table 96, T-cell line 205-1F4, GA conc. 2 μg/mL): 51,613
- Proliferation (ATP assay), Mean (Table 96, T-cell line 205-1F4, GA conc. 2.5 μg/mL): 60,244
- Proliferation (ATP assay), Mean (Table 96, T-cell line 205-1F4, GA conc. 5 μg/mL): 54,345
- Proliferation (ATP assay), Mean (Table 96, T-cell line 222-2D8, GA conc. 0.5 μg/mL): 2,785
- Proliferation (ATP assay), Mean (Table 96, T-cell line 222-2D8, GA conc. 1 μg/mL): 28,970
- Proliferation (ATP assay), Mean (Table 96, T-cell line 222-2D8, GA conc. 2 μg/mL): 76,089
- Proliferation (ATP assay), Mean (Table 96, T-cell line 222-2D8, GA conc. 2.5 μg/mL): 90,666
- Proliferation (ATP assay), Mean (Table 96, T-cell line 222-2D8, GA conc. 5 μg/mL): 99,491
- Proliferation (ATP assay), Mean (Table 96, T-cell line 222-2F12, GA conc. 0.5 μg/mL): 2,404
- Proliferation (ATP assay), Mean (Table 96, T-cell line 222-2F12, GA conc. 1 μg/mL): 11,359
- Proliferation (ATP assay), Mean (Table 96, T-cell line 222-2F12, GA conc. 2 μg/mL): 78,880
- Proliferation (ATP assay), Mean (Table 96, T-cell line 222-2F12, GA conc. 2.5 μg/mL): 95,825
- Proliferation (ATP assay), Mean (Table 96, T-cell line 222-2F12, GA conc. 5 μg/mL): 107,930
